Experimental data from patent US11613522B2, “Herbicidally active 3-phenylisoxazoline-5-carboxamides of tetrahydro- and dihydrofurancarboxamides” (BAYER AKTIENGESELLSCHAFT, priority 2017, dated 2023).

Columns and labels:
Format in all cases: in vivo
[1] = system: Abutilon theophrasti; experiment: Post-emergence herbicidal activity against ABUTH; conditions: Abutilon theophrasti, 504 h, dosage 320 g/ha, rated visually after about 3 weeks
Procedure: (§1) [table] Seeds of monocotyledonous and dicotyledonous weeds and crop plants are placed in sandy loam in plastic or wood-fiber pots, covered with soil and cultivated in a greenhouse under controlled growth conditions. 2 to 3 weeks after sowing, the test plants are treated at the one-leaf stage. The compounds of the invention, formulated in the form of wettable powders (WP) or as emulsion concentrates (EC), are then sprayed onto the green parts of the plants as aqueous suspension or emulsion with addition of 0.5% additive at a water application rate of 600 l/ha (converted). After the test plants had been kept in the greenhouse under optimum growth conditions for about 3 weeks, the activity of the preparations is rated visually in comparison to untreated controls. For example, 100% activity=the plants have died, 0% activity=like control plants.

[2] = system: Setaria viridis; experiment: Pre-emergence herbicidal activity against SETVI; conditions: Setaria viridis, 504 h, dosage 80 g/ha, scored visually after about 3 weeks vs untreated controls
From the text: (§2) 1. Pre-emergence herbicidal action against harmful plants and crop plant compatibility Seeds of monocotyledonous and dicotyledonous weed plants and crop plants are placed in plastic or wood fiber pots and covered with soil. The compounds of the invention, formulated in the form of wettable powders (WP) or as emulsion concentrates (EC), are then applied onto the surface of the covering soil as aqueous suspension or emulsion with addition of 0.5% additive at a water application rate of 600 l/ha (converted). After the treatment, the pots are placed in a greenhouse and kept under good growth conditions for the trial plants. After about 3 weeks, the effect of the preparations is scored visually in comparison with untreated controls as percentages. For example, 100% activity=the plants have died, 0% activity=like control plants. [table]

[3] = system: Veronica persica; experiment: Post-emergence herbicidal activity against VERPE; conditions: Veronica persica, 504 h, dosage 320 g/ha, rated visually after about 3 weeks
Procedure: as §1

[4] = system: Amaranthus retroflexus; experiment: Post-emergence herbicidal activity against AMARE; conditions: Amaranthus retroflexus, 504 h, dosage 320 g/ha, rated visually after about 3 weeks
Procedure: as §1

[5] = system: Echinochloa crus-galli; experiment: Post-emergence herbicidal activity against ECHCG; conditions: Echinochloa crus-galli, 504 h, dosage 320 g/ha, rated visually after about 3 weeks
Procedure: as §1

[6] = system: Hordeum murinum; experiment: Post-emergence herbicidal activity against HORMU; conditions: Hordeum murinum, 504 h, dosage 320 g/ha, rated visually after about 3 weeks
Procedure: as §1

[7] = system: Pharbitis purpurea; experiment: Post-emergence herbicidal activity against PHBPU; conditions: Ipomoea purpurea, 504 h, dosage 320 g/ha, rated visually after about 3 weeks
Procedure: as §1

[8] = system: Setaria viridis; experiment: Post-emergence herbicidal activity against SETVI; conditions: Setaria viridis, 504 h, dosage 320 g/ha, rated visually after about 3 weeks
Procedure: as §1

[9] = system: Echinochloa crus-galli; experiment: Pre-emergence herbicidal activity against ECHCG; conditions: Echinochloa crus-galli, 504 h, dosage 80 g/ha, scored visually after about 3 weeks vs untreated controls
From the text: as §2

[10] = system: Lolium rigidum; experiment: Post-emergence herbicidal activity against LOLRI; conditions: Lolium rigidum, 504 h, dosage 320 g/ha, rated visually after about 3 weeks
Procedure: as §1

[11] = system: Avena fatua; experiment: Post-emergence herbicidal activity against AVEFA; conditions: Avena fatua, 504 h, dosage 320 g/ha, rated visually after about 3 weeks
Procedure: as §1

[12] = system: Lolium rigidum; experiment: Pre-emergence herbicidal activity against LOLRI; conditions: Lolium rigidum, 504 h, dosage 80 g/ha, scored visually after about 3 weeks vs untreated controls
From the text: as §2

[13] = system: Alopecurus myosuroides; experiment: Post-emergence herbicidal activity against ALOMY; conditions: Alopecurus myosuroides, 504 h, dosage 320 g/ha, rated visually after about 3 weeks
Procedure: as §1

[14] = system: Avena fatua; experiment: Pre-emergence herbicidal activity against AVEFA; conditions: Avena fatua, 504 h, dosage 80 g/ha, scored visually after about 3 weeks vs untreated controls, read-out: Pre-emergence herbicidal activity in % against AVEVA (AVEFA)
From the text: as §2

[15] = Pre-emergence herbicidal action against harmful plants (summary of the tables); conditions: 504 h, application rate of 0.08 kg of active substance or less per hectare, read-out: herbicidal action, pre-emergence treatment (very good activity)
From the text: as §2, with “plants.” for “plants. [table]”
As shown by the results, compounds according to the invention such as, for example, the compounds No. I-02 and other compounds from the tables (I-05, I-10, I-11, I-12, I-13, I-14, I-15, I-16, I-17, I-18, I-19, I-20, I-21, I-22, I-23, I-24, I-25, I-26, I-27, I-28, I-29) have, when used for pre-emergence treatment, very good activity (80% to 100% herbicidal action) against harmful plants such as Abutilon theophrasti, Alopecurus myosuroides, Amaranthus retroflexus, Avena fatua, Cyperus esculentus, Echinochloa crus-galli, Hordeum murinum, Lolium rigidum, Pharbitis purpurea, Polygonum convolvulus, Setaria viridis, Stellaria media, Veronica persica and Viola tricolor at an application rate of 0.08 kg of active substance or less per hectare.

[16] = system: Polygonum convolvulus; experiment: Post-emergence herbicidal activity against POLCO; conditions: Fallopia convolvulus, 504 h, dosage 320 g/ha, rated visually after about 3 weeks
Procedure: as §1

[17] = system: Stellaria media; experiment: Pre-emergence herbicidal activity against STEME; conditions: Stellaria media, 504 h, dosage 80 g/ha, scored visually after about 3 weeks vs untreated controls
From the text: as §2

[18] = system: Polygonum convolvulus; experiment: Pre-emergence herbicidal activity against POLCO; conditions: Fallopia convolvulus, 504 h, dosage 80 g/ha, scored visually after about 3 weeks vs untreated controls
From the text: as §2

[19] = system: Hordeum murinum; experiment: Pre-emergence herbicidal activity against HORMU; conditions: Hordeum murinum, 504 h, dosage 80 g/ha
From the text: as §2

[20] = system: Stellaria media; experiment: Post-emergence herbicidal activity against STEME; conditions: Stellaria media, 504 h, dosage 320 g/ha, rated visually after about 3 weeks
Procedure: as §1

[21] = system: Viola tricolor; experiment: Post-emergence herbicidal activity against VIOTR; conditions: Viola tricolor, 504 h, dosage 320 g/ha, rated visually after about 3 weeks
Procedure: as §1

[22] = system: Viola tricolor; experiment: Pre-emergence herbicidal activity against VIOTR; conditions: Viola tricolor, 504 h, dosage 80 g/ha, scored visually after about 3 weeks vs untreated controls
From the text: as §2

[23] = system: Veronica persica; experiment: Pre-emergence herbicidal activity against VERPE; conditions: Veronica persica, 504 h, dosage 80 g/ha
From the text: as §2

[24] = system: Amaranthus retroflexus; experiment: Pre-emergence herbicidal activity against AMARE; conditions: Amaranthus retroflexus, 504 h, dosage 80 g/ha, scored visually after about 3 weeks vs untreated controls
From the text: as §2

[25] = system: Alopecurus myosuroides; experiment: Pre-emergence herbicidal activity against ALOMY; conditions: Alopecurus myosuroides, 504 h, dosage 80 g/ha, scored visually after about 3 weeks vs untreated controls
From the text: as §2

Structure (SMILES) | pest or weed control at 320 g/ha [1] | pest or weed control at 320 g/ha [3] | pest or weed control at 320 g/ha [5] | pest or weed control at 320 g/ha [7] | pest or weed control at 320 g/ha [8] | pest or weed control at 80 g/ha [9] | pest or weed control at 320 g/ha [11] | pest or weed control at 320 g/ha [13] | pest or weed control at 80 g/ha [14] | pest or weed control at 80 g/ha [15] | pest or weed control at 80 g/ha [17] | pest or weed control at 320 g/ha [20] | pest or weed control at 320 g/ha [21] | also measured
C=C[C@]1(C(=O)N[C@H]2CO[C@@H](C(=O)NNC(=O)OC(C)(C)C)C2)CC(c2cc(F)cc(F)c2)=NO1 (mixture of isomers) [Example I-19, tert-butyl N-[[cis-4-[[(5S)-3-(3,5-difluorophenyl)-5-vinyl-4H-isoxazole-5-carbonyl]amino]tetrahydrofuran-2-carbonyl]amino]carbamate] | 90% | 80% | 90% | 90% | 90% | 80% | 90% | 90% | 90% | 80 to 100% | 90% | 90% | 90% | pest or weed control at 80 g/ha [2]: 90%; pest or weed control at 320 g/ha [4]: 90%; pest or weed control at 320 g/ha [6]: 90%; pest or weed control at 320 g/ha [10]: 90%; pest or weed control at 80 g/ha [12]: 100%; pest or weed control at 320 g/ha [16]: 90%; pest or weed control at 80 g/ha [18]: 90%; pest or weed control at 80 g/ha [19]: 100%; pest or weed control at 80 g/ha [22]: 80%
C=CC1(C(=O)N[C@@H]2CO[C@H](C(=O)NC)C2)CC(c2cc(F)cc(F)c2)=NO1 (relative stereo) [Example I-02, 3-(3,5-difluorophenyl)-N-[cis-5-(methylcarbamoyl)tetrahydrofuran-3-yl]-5-vinyl-4H-isoxazole-5-carboxamide] | 80% | 80% | 80% | 90% | 90% | 100% | 90% | 100% | 100% | 80 to 100% | 100% | 90% | 80% | pest or weed control at 80 g/ha [23]: 90%; pest or weed control at 80 g/ha [24]: 100%; pest or weed control at 80 g/ha [25]: 90%
